Consider seven molecules from patent US20240239798A1, “SALTS AND POLYMORPHS OF M[…] 3-DEUTEROMITRAGYNINE” (priority 2021, published 2024).

Values after ≈ are worked out from the molar mass of the structure shown. Where a name gives a salt, the structure may show the parent alone. Read-outs that look alike come from different tables or passages of the source.

As usually defined, the solubility is the dissolved amount per volume that the medium holds.

The conditions of data set [1]: Batch 810081-28-B.
The conditions of data set [2]: cited from earlier work.
A short description of data set [3]: Solubility of 3-DM free base and 3-DM Glycolate Type A in IPA and IPA/H2O (19:1, v/v) at 5, 20, 40, 60° C., 24 hrs. Type of data set: physicochemical.
Data set [4] is described as follows: Approximate solubility of amorphous 3-DM free base starting material in 27 solvent systems at RT. It is filed as physicochemical. How it is done: The approximate solubility of the free base starting material was determined in 27 solvent systems at RT. Approximate 2 mg of material was added into a 3-mL glass vial. […] The solubility results summarized in Table 10 were used to guide the solvent selection in salt screening design.

Data set [5] is classed as physicochemical. The note with it: for solubility: organic solvent or mixture, read-out: Approximate solubility. The procedure:
In the first batch (100 mg scale), pure IPA was used as solvent. […] Detailed preparation procedures for the 3 scaled-up batches can be found below.

Data set [6] is described as follows: Background statements on solubility and gel formation in aqueous solution. Type of data set: physicochemical.

In data set [1] (sonication time 0 s), `O=C(O)CO.[2H]C12CC(C(=COC)C(=O)OC)C(CC)CN1CCc1c2[nH]c2cccc(OC)c12` (centres unmarked) gave a D10 of 7.51 μm, a D50 of 19.96 μm, a D90 of 58.66 μm and an MV of 28.68 μm. In data set [1] (sonication time 30 s (30 Watt)), this molecule yielded a D10 of 5.92 μm, a D50 of 15.93 μm, a D90 of 47.05 μm and an MV of 22.77 μm.

Take `CC[C@@H]1CN2CCc3c([nH]c4cccc(OC)c34)[C@H]2C[C@@H]1/C(=C\OC)C(=O)OC` (stereo in doubt) [mitragynine hydrochloride]: in data set [2] (aqueous solution), the “Behaviour in aqueous solution” value was “form a gel”.

As to `[2H]C12CC(C(=COC)C(=O)OC)C(CC)CN1CCc1c2[nH]c2cccc(OC)c12` (centres unmarked) [3-DM Free Base Type A], in data set [3], the “Solubility in IPA/H2O (19:1, v/v) compared with IPA” value is “higher than IPA”. Moreover, in data set [3] (IPA/H2O (19:1, v/v) at 60° C.), the equilibrium solubility came to 73.94 mg/mL.

With `O=C(O)CO.[2H][C@@]12C[C@H](/C(=C\OC)C(=O)OC)[C@H](CC)CN1CCc1c2[nH]c2cccc(OC)c12` [3-DM Glycolate], the “Results (forms obtained)” value by setting is: (Grind, 4 experiments) “Glycolate Type A”; (Liquid-vapor diffusion, 12 experiments) “Glycolate Type A, B, D, A + C”; (Slow cooling, 6 experiments) “Glycolate Type A, B, C”; (Slow evaporation, 7 experiments) “Glycolate Type A, C, E”; (Slurry at 50° C., 16 experiments) “Glycolate Type A, C”; (Slurry at RT, 25 experiments) “Glycolate Type A”. Further, the “Results (forms obtained)” value (Solid vapor diffusion, 12 experiments) was “Glycolate Type A, C”.

In the case of `[2H][C@@]12C[C@H](/C(=C\OC)C(=O)OC)[C@H](CC)CN1CCc1c2[nH]c2cccc(OC)c12` [3-DM free base, 3-deuteromitragynine], the solubility in data set [4] (organic solvent or mixture, thermodynamic from solid, 1,4-dioxane, RT) was over 42 mg/mL; in data set [4] (organic solvent or mixture, thermodynamic from solid, 2-MeTHF, RT), over 48 mg/mL; in data set [4] (organic solvent or mixture, thermodynamic from solid, ACN, RT), over 46 mg/mL; in data set [4] (organic solvent or mixture, thermodynamic from solid, Acetone, RT), over 38 mg/mL; in data set [4] (organic solvent or mixture, thermodynamic from solid, Acetone/n-Heptane (1:1), RT) it was over 38 mg/mL; in data set [4] (organic solvent or mixture, thermodynamic from solid, Acetone/n-Heptane (1:4), RT) it was over 46 mg/mL. Moreover, the solubility in data set [4] (organic solvent or mixture, thermodynamic from solid, Acetone/n-Heptane (1:9), RT) is 7.7 to 23 mg/mL (≈ 19.3 to 57.6 mM); in data set [4] (organic solvent or mixture, thermodynamic from solid, Acetone/n-Heptane (1:15), RT) it was 4 to 6.7 mg/mL (≈ 10 to 16.8 mM); in data set [4] (organic solvent or mixture, thermodynamic from solid, Acetone/n-Heptane (4:1), RT), over 42 mg/mL; in data set [4] (organic solvent or mixture, thermodynamic from solid, CHCl3, RT) it was over 46 mg/mL; in data set [4] (organic solvent or mixture, thermodynamic from solid, DCM, RT), over 42 mg/mL; in data set [4] (organic solvent or mixture, thermodynamic from solid, DMAc, RT) it was over 46 mg/mL. In addition, the solubility in data set [4] (organic solvent or mixture, thermodynamic from solid, DMSO, RT) is over 34 mg/mL; in data set [4] (organic solvent or mixture, thermodynamic from solid, EtOAc, RT), over 40 mg/mL; in data set [4] (organic solvent or mixture, thermodynamic from solid, EtOH, RT) it was over 38 mg/mL; in data set [4] (organic solvent or mixture, thermodynamic from solid, IPA, RT) it was over 36 mg/mL; in data set [4] (organic solvent or mixture, thermodynamic from solid, IPA/H2O (4:1), RT), 7 to 21 mg/mL (≈ 17.5 to 52.6 mM); in data set [4] (organic solvent or mixture, thermodynamic from solid, IPA/H2O (9:1), RT), 23 to 46 mg/mL (≈ 57.6 to 115 mM). Further, the solubility was over 42 mg/mL in data set [4] (organic solvent or mixture, thermodynamic from solid, IPAc, RT); over 40 mg/mL in data set [4] (organic solvent or mixture, thermodynamic from solid, MIBK, RT); over 46 mg/mL in data set [4] (organic solvent or mixture, thermodynamic from solid, MTBE, RT); over 46 mg/mL in data set [4] (organic solvent or mixture, thermodynamic from solid, MeOH, RT); over 44 mg/mL in data set [4] (organic solvent or mixture, thermodynamic from solid, NMP, RT); over 40 mg/mL in data set [4] (organic solvent or mixture, thermodynamic from solid, THF, RT). The solubility was over 36 mg/mL in data set [4] (organic solvent or mixture, thermodynamic from solid, Toluene, RT); under 2.3 mg/mL in data set [4] (organic solvent or mixture, thermodynamic from solid, n-Heptane, RT); under 2.3 mg/mL in data set [4] (water, thermodynamic from solid, H2O, RT); over 40 mg/mL in data set [5] (EtOAc); over 38 mg/mL in data set [5] (EtOH); over 36 mg/mL in data set [5] (IPA). For the same molecule, the solubility was over 46 mg/mL in data set [5] (MeOH), over 38 mg/mL in data set [5] (acetone) and over 42 mg/mL in data set [5] (acetone/n-heptane (1:1) v/v). In addition, the “Solubility in IPA (in words)” value in data set [5] (IPA, approximate) is listed as “high solubility”. Besides, the “Solubility compared with Glycolate Type A” value in data set [3] (IPA and IPA/H2O (19:1, v/v), each temperature (5-60° C.)) was “much higher than that of Glycolate Type A”.

As to `Cl.[2H]C12CC(C(=COC)C(=O)OC)C(CC)CN1CCc1c2[nH]c2cccc(OC)c12` (centres unmarked) [3-DM hydrochloride salt], in data set [6], the “Behaviour in aqueous solution” value is given as “forms a gel”.

As for `CC[C@@H]1CN2CCc3c([nH]c4cccc(OC)c34)[C@@H]2C[C@@H]1/C(=C\OC)C(=O)OC` [Mitragynine], the “Solubility in conventional organic solvents (in words)” value in data set [2] (acetone, acetic acid, alcohols, chloroform and diethyl ether) is listed as “soluble”. The “Solubility in water (in words)” value in data set [2] (water) is listed as “insoluble”.
